Results: ChEMBL document CHEMBL1158725, “Microbial genomics as a guide to drug discovery and structural elucidation: ECO-02301, a novel antifungal agent, as an example” (2005)
Converted amounts (≈) assume the structure as drawn.

Key:
Format in all cases: functional
[1] = tested on: Candida albicans; assay: Antifungal activity against Candida albicans ATCC 10231 by broth dilution susceptibility test
[2] = tested on: Nakaseomyces glabratus; assay: Antifungal activity against Candida glabrata ATCC 90030 by broth dilution susceptibility test
[3] = tested on: Clavispora lusitaniae; assay: Antifungal activity against Candida lusitaniae ATCC 200953 by broth dilution susceptibility test
[4] = tested on: Candida tropicalis; assay: Antifungal activity against Candida tropicalis ATCC 200955 by broth dilution susceptibility test
[5] = tested on: Pichia kudriavzevii; assay: Antifungal activity against Candida krusei LSPQ 0309 by broth dilution susceptibility test
[6] = tested on: Saccharomyces cerevisiae; assay: Antifungal activity against Saccharomyces cerevisiae ATCC 9763 by broth dilution susceptibility test
[7] = tested on: Aspergillus fumigatus; assay: Antifungal activity against Aspergillus fumigatus ATCC 204305 by broth dilution susceptibility test
[8] = tested on: Aspergillus flavus; assay: Antifungal activity against Aspergillus flavus ATCC 204304 by broth dilution susceptibility test
[9] = tested on: Cryptococcus neoformans; assay: Antifungal activity against Cryptococcus neoformans ATCC 32045 by broth dilution susceptibility test

| Compound | MIC [1] [µg/mL] | MIC [2] [µg/mL] | MIC [3] [µg/mL] | MIC [4] [µg/mL] | MIC [5] [µg/mL] | MIC [6] [µg/mL] | MIC [7] [µg/mL] | MIC [8] [µg/mL] | MIC [9] [µg/mL] |
| --- | --- | --- | --- | --- | --- | --- | --- | --- | --- |
| CC(/C=C/CC/C=C/C=C/C=C/C=C/C(=O)NC1=C(O)CCC1=O)C(O)C(C)C(O)/C=C/C=C/C=C/C=C/C=C/CC(O[C@@H]1O[C@@H](C)[C@H](O)[C@@H](O)[C@H]1O)C(C)C(=O)CC(O)CC(O)CC(O)/C=C/CC(O)CC(O)CC(O)CC(O)/C=C/CC(O)CC(O)CCCN (stereo in doubt) | 4 (≈ 3.08 µM) | 4 (≈ 3.08 µM) | 4 (≈ 3.08 µM) | 4 (≈ 3.08 µM) | 4 (≈ 3.08 µM) | 4 (≈ 3.08 µM) | 16 (≈ 12.3 µM) | ≥ 8 | 4 (≈ 3.08 µM) |
| C[C@@H]1[C@H](O)[C@@H](C)/C=C/C=C/C=C/C=C/C=C/C=C/C=C/[C@H](O[C@@H]2O[C@H](C)[C@@H](O)[C@H](N)[C@@H]2O)C[C@@H]2O[C@](O)(C[C@@H](O)C[C@@H](O)[C@H](O)CC[C@@H](O)C[C@@H](O)CC(=O)O[C@H]1C)C[C@H](O)[C@H]2C(=O)O [AMPHOTERICIN B] | 1 (≈ 1.08 µM) | 1 (≈ 1.08 µM) | 1 (≈ 1.08 µM) | 2 (≈ 2.16 µM) | – | 1 (≈ 1.08 µM) | 2 (≈ 2.16 µM) | 4 (≈ 4.33 µM) | – |
